In patent publication US20250145566A1, “PHENETHYLAMINE DERIVATIVES, COMPOSITIONS, AND METHODS OF USE” (Cybin IRL Limited, priority 2022, published 2025):

What was measured:
[1] = biological target: T1, 5-HT2C (h) (Homo sapiens, UniProt P28335); assay: 5-HT2C (h) agonist radioligand [125I](±)DOI binding; conditions: at 10 μM
T1 construct: expressed in transfected cells; host or cells: HEK-293 cells
T1 sequence (P28335 33-458): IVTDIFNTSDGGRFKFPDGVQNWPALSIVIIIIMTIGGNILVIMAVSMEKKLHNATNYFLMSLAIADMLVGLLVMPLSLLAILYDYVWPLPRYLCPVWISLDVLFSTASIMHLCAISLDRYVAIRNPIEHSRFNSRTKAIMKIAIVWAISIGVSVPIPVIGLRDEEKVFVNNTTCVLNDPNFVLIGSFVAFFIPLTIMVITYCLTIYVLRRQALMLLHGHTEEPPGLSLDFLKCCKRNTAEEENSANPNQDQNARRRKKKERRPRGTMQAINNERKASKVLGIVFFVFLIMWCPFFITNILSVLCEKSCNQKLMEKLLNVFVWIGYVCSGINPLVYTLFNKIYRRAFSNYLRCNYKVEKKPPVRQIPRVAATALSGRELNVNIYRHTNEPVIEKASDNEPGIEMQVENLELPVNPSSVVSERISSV
Description: (§1) Samples were then analyzed as described above.

[2] = biological target: T2, norepinephrine transporter (h) (Homo sapiens, UniProt P23975); assay: norepinephrine transporter (h) binding, [3H]nisoxetine; conditions: at 10 μM; table calls these values “No Binding”
T2 construct: expressed in transfected cells; host or cells: CHO cells
T2 sequence (P23975 whole entry): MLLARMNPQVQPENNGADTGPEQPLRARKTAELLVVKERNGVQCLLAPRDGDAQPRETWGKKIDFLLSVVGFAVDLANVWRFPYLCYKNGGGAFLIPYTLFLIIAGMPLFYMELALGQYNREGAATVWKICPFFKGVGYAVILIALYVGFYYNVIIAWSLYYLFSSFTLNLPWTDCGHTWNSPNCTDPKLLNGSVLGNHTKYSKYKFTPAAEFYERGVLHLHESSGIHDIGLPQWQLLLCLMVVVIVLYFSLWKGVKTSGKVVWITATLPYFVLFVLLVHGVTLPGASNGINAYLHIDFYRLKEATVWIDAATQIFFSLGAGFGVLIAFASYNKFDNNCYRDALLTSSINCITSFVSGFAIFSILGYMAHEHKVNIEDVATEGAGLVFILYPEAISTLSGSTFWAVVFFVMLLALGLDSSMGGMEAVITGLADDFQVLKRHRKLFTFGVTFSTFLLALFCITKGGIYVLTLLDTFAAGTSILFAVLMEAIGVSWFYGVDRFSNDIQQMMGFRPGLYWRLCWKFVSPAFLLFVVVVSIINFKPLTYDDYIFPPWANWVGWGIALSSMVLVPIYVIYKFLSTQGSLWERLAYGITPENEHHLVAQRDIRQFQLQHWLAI

[3] = biological target: T3, 5-HT2B (h) (Homo sapiens, UniProt P41595); assay: 5-HT2B (h) agonist radioligand [125I](±)DOI binding; conditions: at 10 μM
T3 construct: expressed in transfected cells; host or cells: CHO cells
T3 sequence (P41595 whole entry): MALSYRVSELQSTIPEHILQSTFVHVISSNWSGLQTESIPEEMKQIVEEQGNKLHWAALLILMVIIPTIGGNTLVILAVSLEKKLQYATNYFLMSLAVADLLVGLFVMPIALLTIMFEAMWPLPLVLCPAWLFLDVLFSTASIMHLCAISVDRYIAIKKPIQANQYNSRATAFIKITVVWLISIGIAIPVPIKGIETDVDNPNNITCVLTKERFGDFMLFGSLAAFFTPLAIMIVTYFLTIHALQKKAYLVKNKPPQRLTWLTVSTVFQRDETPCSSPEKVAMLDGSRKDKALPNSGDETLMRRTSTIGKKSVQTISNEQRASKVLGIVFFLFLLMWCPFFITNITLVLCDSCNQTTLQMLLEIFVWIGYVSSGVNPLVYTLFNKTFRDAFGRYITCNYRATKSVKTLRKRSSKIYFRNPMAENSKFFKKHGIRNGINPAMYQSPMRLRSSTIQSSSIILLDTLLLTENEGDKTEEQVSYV
Description: as §1

[4] = biological target: T4, 5-HT2A (h) (Homo sapiens, UniProt P28223); assay: 5-HT2A (h) agonist radioligand [125I](±)DOI binding; conditions: at 10 μM
T4 construct: expressed in transfected cells; host or cells: HEK-293 cells
T4 sequence (P28223 whole entry): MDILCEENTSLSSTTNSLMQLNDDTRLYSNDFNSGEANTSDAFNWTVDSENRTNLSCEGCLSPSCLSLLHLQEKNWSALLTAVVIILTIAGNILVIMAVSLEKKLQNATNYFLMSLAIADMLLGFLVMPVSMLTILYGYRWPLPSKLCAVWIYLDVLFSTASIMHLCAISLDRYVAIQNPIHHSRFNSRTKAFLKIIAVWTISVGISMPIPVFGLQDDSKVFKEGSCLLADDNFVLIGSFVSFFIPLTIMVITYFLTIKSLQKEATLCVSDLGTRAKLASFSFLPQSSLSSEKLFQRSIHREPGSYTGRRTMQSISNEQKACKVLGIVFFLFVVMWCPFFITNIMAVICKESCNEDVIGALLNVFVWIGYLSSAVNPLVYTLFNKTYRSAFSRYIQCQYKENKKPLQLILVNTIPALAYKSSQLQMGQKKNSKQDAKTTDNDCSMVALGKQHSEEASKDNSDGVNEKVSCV

[5] = biological target: T5, dopamine transporter (h) (Homo sapiens, UniProt Q01959); assay: dopamine transporter (h) binding, [3H]BTCP; conditions: at 10 μM; table calls these values “No Binding”
T5 construct: expressed in transfected cells; host or cells: CHO cells
T5 sequence (Q01959 whole entry): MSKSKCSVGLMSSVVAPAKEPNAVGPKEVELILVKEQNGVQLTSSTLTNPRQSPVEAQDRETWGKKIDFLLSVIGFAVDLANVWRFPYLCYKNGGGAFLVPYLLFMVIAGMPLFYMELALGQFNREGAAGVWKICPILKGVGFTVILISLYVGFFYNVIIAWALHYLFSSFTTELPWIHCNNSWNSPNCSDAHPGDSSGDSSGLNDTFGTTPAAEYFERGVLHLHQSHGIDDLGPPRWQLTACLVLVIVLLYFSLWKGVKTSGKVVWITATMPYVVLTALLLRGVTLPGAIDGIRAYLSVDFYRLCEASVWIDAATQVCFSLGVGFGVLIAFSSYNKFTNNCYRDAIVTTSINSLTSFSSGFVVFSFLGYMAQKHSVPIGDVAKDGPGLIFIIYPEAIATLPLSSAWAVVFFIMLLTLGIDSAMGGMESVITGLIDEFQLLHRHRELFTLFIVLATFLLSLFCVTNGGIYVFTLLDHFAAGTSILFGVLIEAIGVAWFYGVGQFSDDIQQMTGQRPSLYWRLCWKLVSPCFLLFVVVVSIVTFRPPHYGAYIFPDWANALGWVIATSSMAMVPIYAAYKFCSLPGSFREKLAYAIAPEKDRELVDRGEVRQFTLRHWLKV

[6] = biological target: T6, 5-HT transporter (h) (Homo sapiens, UniProt P31645); assay: 5-HT transporter (h) binding, [3H]imipramine; conditions: for selectivity for binding SERT over DAT and NET, in words: affinity screen at 10 μM
T6 construct: expressed in transfected cells; host or cells: CHO cells
T6 sequence (P31645 whole entry): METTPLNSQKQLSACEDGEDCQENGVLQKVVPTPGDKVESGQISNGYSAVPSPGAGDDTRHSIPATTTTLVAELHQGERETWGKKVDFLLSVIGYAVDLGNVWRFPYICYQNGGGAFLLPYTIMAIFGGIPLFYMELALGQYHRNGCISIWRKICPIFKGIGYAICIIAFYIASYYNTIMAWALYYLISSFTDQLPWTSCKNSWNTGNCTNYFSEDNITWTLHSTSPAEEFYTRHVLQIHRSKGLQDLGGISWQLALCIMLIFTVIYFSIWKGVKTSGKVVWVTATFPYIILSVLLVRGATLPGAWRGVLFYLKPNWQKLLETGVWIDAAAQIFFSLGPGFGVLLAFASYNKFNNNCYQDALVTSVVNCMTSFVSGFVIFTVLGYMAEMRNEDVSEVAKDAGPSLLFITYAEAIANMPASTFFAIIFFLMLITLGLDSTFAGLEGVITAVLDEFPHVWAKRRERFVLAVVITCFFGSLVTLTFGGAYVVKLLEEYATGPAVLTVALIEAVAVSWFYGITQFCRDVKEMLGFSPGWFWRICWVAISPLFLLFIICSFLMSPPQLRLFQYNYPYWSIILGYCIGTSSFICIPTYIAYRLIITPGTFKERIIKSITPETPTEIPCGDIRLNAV

[7] = Rat liver microsomes (RLM) in vitro metabolism; assay type: in vitro ADME; conditions: Sprague-Dawley, pH 7.4; rat liver microsomes, test compound 1 μM; * = apparent NADPH independent reaction; read-out: RLM t1/2
Description: (§2) Rat Liver Microsomes (RLM). Male Sprague-Dawley rat liver microsomes were purchased from XenoTech. The reaction mixture, minus NADPH, was prepared as described in Table 10. The test compound was added into the reaction mixture at a final concentration of 1 μM. The control compound, testosterone, was run simultaneously with the test compound in a separate reaction. The reaction mixture (without cofactor) was equilibrated in a shaking water bath at 37° C. for 5 minutes. The reaction was initiated by the addition of the cofactor, and the mixture was incubated in a shaking water bath at 37° C. Aliquots (150 μL) were withdrawn at 0, 5, 10, 20, 30, 60, and for some assays at 120 minutes. Test compound and testosterone samples were immediately combined with 150 μL of ice-cold acetonitrile (ACN) containing 0.1% formic acid and internal standard to terminate the reaction. The samples were then mixed and centrifuged to precipitate proteins. All samples were assayed by LC-MS/MS using electrospray ionization. The peak area response ratio (PARR) of analyte to internal standard at each time point was compared to the PARR at time 0 to determine the percent remaining at each time point. Half-lives were calculated using GraphPad software, fitting to a single-phase exponential decay equation.
(§3) In a different series of reactions using RLM, a 10 mM stock solution of the test compound was prepared in DMSO. From this stock solution, an intermediate stock solution of 1 mM was prepared by diluting the compound in DMSO and from this intermediate stock solution, a working solution of 0.30 mM was prepared by diluting the compound in ACN:Water (50:50) as a cocktail of two compounds (i.e., 30 μL the non-deuterated and the deuterated compound in 40 μL diluent in 100 μL total volume). Following this, a master mix of rat liver microsomes (final concentration 0.5 mg/ml, Xenotech Cat #R1000; Lot #1610290) and 0.1 M potassium phosphate buffer was prepared and pre-incubated for 5 min at 37° C. The test compound mixture was then added to achieve a final test article concentration of 1 μM (for each analog if co-dosed; 0.2% DMSO); verapamil was used as a positive control. Subsequently, 10 mM NADPH prepared in 0.1 M potassium phosphate buffer was added (final concentration 1 mM) to initiate the reaction and samples were incubated at 37° C. for the desired time points (0, 5, 15, 30, 45, 60 min). At each time point, 40 μL of the samples were withdrawn and reactions were stopped using 200 μL chilled ACN containing 0.1% formic acid and internal standard carbamazepine (10 ng/mL). The samples were centrifuged, and the supernatant was analyzed by LC-MS/MS. The percent compound remaining at each time point was calculated with respect to that of the 0 min sample. The data were then analyzed to calculate half-life. Blank samples were prepared using DMSO (without the test compound).

[8] = system: Rat Liver Microsomes; assay: Rat liver microsomes (RLM) in vitro metabolism; assay type: in vitro ADME; conditions: result in words
Description: as §2, §3

[9] = biological target: T7, Serotonin transporter (Rattus norvegicus, UniProt P31652); assay: Serotonin transporter uptake, rat brain synaptosomes; assay type: biochemical; conditions: for selectivity for blocking 5-HT reuptake relative to NE and DA, in words / selectivity for inhibiting SERT relative to DAT and NET: uptake inhibition
T7 construct: from tissue
T7 sequence (P31652 whole entry): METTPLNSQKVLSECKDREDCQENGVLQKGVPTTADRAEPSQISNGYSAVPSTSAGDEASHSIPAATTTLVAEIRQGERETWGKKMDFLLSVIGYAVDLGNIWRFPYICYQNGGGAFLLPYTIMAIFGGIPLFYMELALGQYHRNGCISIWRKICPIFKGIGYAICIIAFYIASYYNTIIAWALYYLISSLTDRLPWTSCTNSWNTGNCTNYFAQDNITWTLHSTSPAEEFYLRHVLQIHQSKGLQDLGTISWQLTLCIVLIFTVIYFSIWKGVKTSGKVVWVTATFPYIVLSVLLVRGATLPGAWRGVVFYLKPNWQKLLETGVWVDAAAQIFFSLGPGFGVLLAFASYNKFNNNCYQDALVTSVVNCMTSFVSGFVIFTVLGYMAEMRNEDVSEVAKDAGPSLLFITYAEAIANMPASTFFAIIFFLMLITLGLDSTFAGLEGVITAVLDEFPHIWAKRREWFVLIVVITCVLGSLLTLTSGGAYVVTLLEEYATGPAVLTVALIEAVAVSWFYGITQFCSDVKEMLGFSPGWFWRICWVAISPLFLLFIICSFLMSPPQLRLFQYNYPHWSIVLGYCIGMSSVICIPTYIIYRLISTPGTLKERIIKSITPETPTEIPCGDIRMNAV

NCCc1ccc2c(c1)OCS2 [II-14, 2-(benzo[d][1,3]oxathiol-6-yl)ethan-1-amine]
Binding 5-HT2C (agonist radioligand), % competition [1]: 94.4% competition | Binding NET (antagonist radioligand), % competition [2]: 40.5% competition | Binding 5-HT2B (agonist radioligand), % competition [3]: 100.3% competition | Binding 5-HT2A (agonist radioligand), % competition [4]: 93.9% competition | Binding DAT (antagonist radioligand), % competition [5]: 26% competition | selectivity for binding SERT over DAT and NET, in words [6]: substantial selectivity for binding SERT over DAT and NET | Binding SERT (antagonist radioligand), % competition ([6]; at 10 μM): 54.7% competition | half-life at 1 µM [7]: < 5 min | disappearance in RLM, NADPH dependence [8]: NADPH-independent | IC50 [9]: ~500 nM | Function SERT, inhibition of SERT ([9]; from 3 to 100 μM): 98.5-107.9%, | Function SERT (blocking reuptake of 5-HT), efficacy in words ([9]; tested at 1, 3, 10, 100 μM): Full efficacy, | efficacy for blocking 5-HT uptake through SERT, in words ([9]; tested at 1, 3, 10, 100 μM): full efficacy | selectivity for blocking 5-HT reuptake relative to NE and DA, in words [9]: selectivity (higher potency) for blocking 5-HT reuptake relative to NE and DA | selectivity for inhibiting SERT relative to DAT and NET [9]: ~5 fold

CC(N)Cc1ccc2c(c1)OCS2 (stereo not drawn) [II-16, 1-(benzo[d][1,3]oxathiol-6-yl)propan-2-amine]
selectivity for binding SERT over DAT and NET, in words [6]: substantial selectivity for binding SERT over DAT and NET | half-life at 1 µM [7]: 11.7 min | disappearance in RLM, NADPH dependence [8]: NADPH-independent | efficacy for blocking 5-HT uptake through SERT, in words ([9]; tested at 1, 3, 10, 100 μM): full efficacy | selectivity for blocking 5-HT reuptake relative to NE and DA, in words [9]: selectivity (higher potency) for blocking 5-HT reuptake relative to NE and DA | selectivity for inhibiting SERT relative to DAT and NET [9]: ~5 fold
